US11220523B2, “Carbohydrate ligands that bind to IgM antibodies against myelin-associated glycoprotein” (UNIVERSITÄT BASEL, priority 2014, dated 2022)

Molecular target: anti-MAG IgM antibodies
Test: Competitive binding assay (modified anti-MAG ELISA): compounds compete with immobilized MAG for anti-MAG IgM antibodies of patient sera
Parameters: species or system human
Experimental: FIG. 1. Schematic representation of a competitive binding assay • (a) Incubation of MAG-coated plates with anti-MAG IgM (patient sera) and polymer 25. (b) Wash step. (c) Incubation with anti-human IgM antibody coupled to horseradish peroxidase. (d) Wash step. (e) Addition of tetramethylbenzidin (TMB) substrate. (f) Addition of acidic stop solution and measurement of the optical density.
The synthesized carbohydrate monomers (1 and 2) and the polymer 25 were tested in an established ELISA assay (Bühlmann Laboratories, Schonenbuch, Switzerland) applied for the diagnosis of anti-MAG neuropathy and for therapy control in clinic. The assay is used to determine serum concentration of anti-MAG IgM autoantibodies. The assay was modified to a competitive binding assay. The synthesized compounds and serum samples containing anti-MAG IgM antibodies are given into 96 well plates, coated with purified MAG from human brain. Immobilized MAG and the synthesized compounds compete for binding to the anti-MAG IgM antibodies. After a washing step MAG-bound IgM antibodies are detected with a horseradish peroxidase labeled antibody, followed by a colorimetric reaction. Successful competition of the compounds with MAG leads to a decrease in measured OD450 nm (optical density), because they block the binding sites of IgM antibodies, preventing them from binding to MAG. The principle of the assay is depicted in FIG. 1. For the evaluation of the compounds, four sera from different patients ([…]) with reported high anti-MAG IgM antibody titers were chosen. IgM antibody concentrations were determined for each serum in preliminary experiments. Serum dilutions with measured OD450 nm values around 1.0 were chosen for the assay, to be able to compare the measured IC50 values (half maximal inhibitory concentration) which are antibody concentration dependent. Serum dilutions: DP 1:2′500, KH 1:3,000, SJ 1:7,500, MK 1:23,000.
IC50 values of compound 1 were determined for all sera. Those of compound 2 were determined for serum MK with the highest antibody affinity for 1 and for serum SJ with the lowest antibody affinity for 1. The assay was repeated four times. From the received binding curves for each serum, the three best fitted were chosen and normalized for IC50 calculation. For curve generation of compound 2 an artificially high concentration point at 500 mM with 0% antibody binding was added because even at the highest concentration of 2 (50 mM) the inhibition of antibody binding was not 100%. The IC50 values for compound 2 are therefore to be considered as approximated values, although they changed only marginally upon addition of the high concentration point. Under the same assay conditions the carbohydrate polymer was tested with the sera KH, MK and SJ. The measurements were repeated at least three times. The three best fitted curves for each serum were chosen for IC50 calculation.
Sera of four patients (three men and one […]) were investigated. They all were tested positive for a monoclonal IgM gammopathy and were diagnosed with anti-MAG neuropathy at the University Hospital of Basel (Basel, Switzerland). Serum anti-MAG antibody titers were determined by an ELISA assay (Bühlmann Laboratories, Schonenbuch, Switzerland). Sera from two patients with a monoclonal IgM gammopathy and negative anti-MAG activity served as control. Use of sera was approved by the ethics committee of the University Hospital of Basel.
An anti-MAG ELISA kit (Bühlmann Laboratories, Schonenbuch, Switzerland) was used for the biological evaluation of compounds 1, 2 and 25. The 96 well plates coated with purified MAG from human brain were washed four times with washing buffer (300 μl/well) before adding the carbohydrate ligands in seven different concentrations (0.05-50 mM for the monomers 1 and 2 and 0.05-5,000 nM for the polymer 25), 25 μl/well. The patient sera containing anti-MAG IgM antibodies were added in the appropriate dilutions, 25 μl/well. […]

Row | IC50 (patient serum DP (dilution 1:2′500), MAG-coated plates) [µM] | IC50 (patient serum KH (dilution 1:3,000), MAG-coated plates) [µM] | IC50 (patient serum MK (dilution 1:23,000), MAG-coated plates) [µM] | IC50 (patient serum SJ (dilution 1:7,500), MAG-coated plates) [µM] | inhibition of antibody binding (highest concentration, 50 mM) [%] | weaker binding to the unsulfated disaccharide (versus sulfated disaccharide 1) (patient serum MK) | IC50 (patient serum MK, approximated value, artificial point at 500 mM with 0% antibody binding added for curve fit) [µM] | lower binding affinity to the unsulfated disaccharide (versus sulfated disaccharide 1) (patient serum SJ) [fold] | IC50 (patient serum SJ, approximated value, artificial point at 500 mM with 0% antibody binding added for curve fit) [µM] | SMILES
1 | 536 ± 23.5 | 614 ± 20.1 | 124 ± 9.5 | 793 ± 24 | – | – | – | – | – | COc1ccc(OC2OC(CO)C(O)C(OC3OC(C(=O)O)C(O)C(OS(=O)(=O)O)C3O)C2O)cc1 [Compound 1, 4-Methoxyphenyl (Disodium-3-O-Sulfo-β-D-Glucopyranuronate)-(1→3)-β-D-Galacto-Pyranoside]
2 | – | – | – | – | < 100 | approximately 230 fold | 29000 ± 500 | 12.6 | 10000 ± 1000 | COc1ccc(OC2OC(CO)C(O)C(OC3OC(C(=O)O)C(O)C(O)C3O)C2O)cc1 [Compound 2, 4-Methoxyphenyl (Sodium β-D-Glucopyranuronate)-(1→3)-β-D-Galactopyranoside]
